Source: PubChem BioAssay AID1963838 (Molecular Pharmacology Branch, DTP, NCI, 2024)

System: 855422-203-R-J1-PDC complex spheroid viability
Test: Anticancer human tumor 855422-203-R-J1-PDC patient-derived bladder carcinoma cell line growth inhibition [POLQ]
Details: for IC50: curve of first compound; for viability, T/C: stronger effect = lower value
Outline: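 Three-cell-type spheroids modelling solid tumor plus stroma served as the readout system; POL inhibitors were tested individually and in combination, concentration ranges set by clinical Cmax where known.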

[1] = second compound 0.0316 µM, first compound 0.0316 µM
[2] = second compound 0.0316 µM, first compound 0.1 µM
[3] = second compound 0.1 µM, first compound 0.0316 µM
[4] = second compound 0.1 µM, first compound 0.1 µM
[5] = second compound 0.316 µM, first compound 0.0316 µM
[6] = second compound 0.316 µM, first compound 0.1 µM
[7] = second compound 1 µM, first compound 0.0316 µM
[8] = second compound 1 µM, first compound 0.1 µM
[9] = second compound 3.16 µM, first compound 0.0316 µM
[10] = second compound 3.16 µM, first compound 0.1 µM
[11] = second compound 10 µM, first compound 0.0316 µM
[12] = second compound 10 µM, first compound 0.1 µM
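Also: spheroids exposed to compounds for seven days before readout.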

With `CC(=O)O[C@H]1C(=O)[C@@]2(C)[C@H]([C@H](OC(=O)c3ccccc3)[C@]3(O)C[C@H](OC(=O)[C@H](O)[C@@H](NC(=O)c4ccccc4)c4ccccc4)C(C)=C1C3(C)C)[C@]1(OC(C)=O)CO[C@@H]1C[C@@H]2O` + Cc1cccc(N(C)C(=O)C2C(O)CCN2c2nc(C)cc(C(F)(F)F)c2C#N)c1 the IC50 (second compound 0.0316 µM) was under 9.49 nM, the IC50 (second compound 0.1 µM) was under 9.49 nM and the IC50 (second compound 0.316 µM) was under 9.49 nM. For the same compound, the IC50 (second compound 1 µM) was under 9.49 nM, the IC50 (second compound 3.16 µM) was under 9.49 nM and the IC50 (second compound 10 µM) was under 9.49 nM. For the same compound, the viability, T/C (second compound 0.0316 µM, first compound 0.00949 µM) was 13.6%, the viability, T/C (second compound 0.0316 µM, first compound 0.03 µM) was 9.26% and the viability, T/C (second compound 0.0316 µM, first compound 0.0949 µM) was 11.7%. For the same compound, the viability, T/C (second compound 0.0316 µM, first compound 0.3 µM) was 9.48%, the viability, T/C (second compound 0.0316 µM, first compound 0.949 µM) was 11.1% and the viability, T/C (second compound 0.0316 µM, first compound 3 µM) was 12.6%. It also gave a viability, T/C (second compound 0.1 µM, first compound 0.00949 µM) of 16.4%, a viability, T/C (second compound 0.1 µM, first compound 0.03 µM) of 10.2% and a viability, T/C (second compound 0.1 µM, first compound 0.0949 µM) of 9.03%. It also gave a viability, T/C (second compound 0.1 µM, first compound 0.3 µM) of 7.34%, a viability, T/C (second compound 0.1 µM, first compound 0.949 µM) of 9.39% and a viability, T/C (second compound 0.1 µM, first compound 3 µM) of 8.97%. For the same compound, the viability, T/C (second compound 0.316 µM, first compound 0.00949 µM) was 11.8%, the viability, T/C (second compound 0.316 µM, first compound 0.03 µM) was 10.8% and the viability, T/C (second compound 0.316 µM, first compound 0.0949 µM) was 8.92%. For the same compound, the viability, T/C (second compound 0.316 µM, first compound 0.3 µM) was 9.41%, the viability, T/C (second compound 0.316 µM, first compound 0.949 µM) was 10.9% and the viability, T/C (second compound 0.316 µM, first compound 3 µM) was 9.92%. The viability, T/C (second compound 1 µM, first compound 0.00949 µM) was 9.84%, the viability, T/C (second compound 1 µM, first compound 0.03 µM) was 12% and the viability, T/C (second compound 1 µM, first compound 0.0949 µM) was 9.05%. The viability, T/C (second compound 1 µM, first compound 0.3 µM) was 9.65%, the viability, T/C (second compound 1 µM, first compound 0.949 µM) was 10.3% and the viability, T/C (second compound 1 µM, first compound 3 µM) was 10.7%. It also gave a viability, T/C (second compound 3.16 µM, first compound 0.00949 µM) of 11.4%, a viability, T/C (second compound 3.16 µM, first compound 0.03 µM) of 11.7% and a viability, T/C (second compound 3.16 µM, first compound 0.0949 µM) of 10.1%. It also gave a viability, T/C (second compound 3.16 µM, first compound 0.3 µM) of 10.2%, a viability, T/C (second compound 3.16 µM, first compound 0.949 µM) of 11.5% and a viability, T/C (second compound 3.16 µM, first compound 3 µM) of 10.8%. The viability, T/C (second compound 10 µM, first compound 0.00949 µM) was 13.1%, the viability, T/C (second compound 10 µM, first compound 0.03 µM) was 11.8% and the viability, T/C (second compound 10 µM, first compound 0.0949 µM) was 12.8%. For the same compound, the viability, T/C (second compound 10 µM, first compound 0.3 µM) was 10.9%, the viability, T/C (second compound 10 µM, first compound 0.949 µM) was 12% and the viability, T/C (second compound 10 µM, first compound 3 µM) was 11.9%.

`CC[C@@]1(O)C(=O)OCc2c1cc1n(c2=O)Cc2cc3c(CN(C)C)c(O)ccc3nc2-1` + Cc1cccc(N(C)C(=O)C2C(O)CCN2c2nc(C)cc(C(F)(F)F)c2C#N)c1 showed an IC50 (second compound 0.0316 µM) of 29.1 nM, an IC50 (second compound 0.1 µM) of 32.4 nM and an IC50 (second compound 0.316 µM) of 28 nM. It also gave an IC50 (second compound 1 µM) of 26.5 nM, an IC50 (second compound 3.16 µM) of 26.4 nM and an IC50 (second compound 10 µM) of 23.1 nM. It also gave a viability, T/C (second compound 0.0316 µM, first compound 0.000316 µM) of 102%, a viability, T/C (second compound 0.0316 µM, first compound 0.001 µM) of 97.4% and a viability, T/C (second compound 0.0316 µM, first compound 0.00316 µM) of 99.8%. For the same compound, the viability, T/C (second compound 0.0316 µM, first compound 0.01 µM) was 82.5%, the viability, T/C [1] was 47.7% and the viability, T/C [2] was 13.3%. It also gave a viability, T/C (second compound 0.1 µM, first compound 0.000316 µM) of 118%, a viability, T/C (second compound 0.1 µM, first compound 0.001 µM) of 104% and a viability, T/C (second compound 0.1 µM, first compound 0.00316 µM) of 99%. It also gave a viability, T/C (second compound 0.1 µM, first compound 0.01 µM) of 103%, a viability, T/C [3] of 50.8% and a viability, T/C [4] of 13.7%. It also gave a viability, T/C (second compound 0.316 µM, first compound 0.000316 µM) of 94.7%, a viability, T/C (second compound 0.316 µM, first compound 0.001 µM) of 105% and a viability, T/C (second compound 0.316 µM, first compound 0.00316 µM) of 97.5%. For the same compound, the viability, T/C (second compound 0.316 µM, first compound 0.01 µM) was 99.5%, the viability, T/C [5] was 44.1% and the viability, T/C [6] was 14.1%. The viability, T/C (second compound 1 µM, first compound 0.000316 µM) was 99.7%, the viability, T/C (second compound 1 µM, first compound 0.001 µM) was 96.4% and the viability, T/C (second compound 1 µM, first compound 0.00316 µM) was 116%. For the same compound, the viability, T/C (second compound 1 µM, first compound 0.01 µM) was 89.4%, the viability, T/C [7] was 43% and the viability, T/C [8] was 12.4%. The viability, T/C (second compound 3.16 µM, first compound 0.000316 µM) was 102%, the viability, T/C (second compound 3.16 µM, first compound 0.001 µM) was 100% and the viability, T/C (second compound 3.16 µM, first compound 0.00316 µM) was 113%. The viability, T/C (second compound 3.16 µM, first compound 0.01 µM) was 94.9%, the viability, T/C [9] was 41.6% and the viability, T/C [10] was 11.9%. The viability, T/C (second compound 10 µM, first compound 0.000316 µM) was 97.4%, the viability, T/C (second compound 10 µM, first compound 0.001 µM) was 97.7% and the viability, T/C (second compound 10 µM, first compound 0.00316 µM) was 107%. The viability, T/C (second compound 10 µM, first compound 0.01 µM) was 86.8%, the viability, T/C [11] was 36% and the viability, T/C [12] was 11.6%.

For `COc1cc(C2c3cc4c(cc3C(OC3OC5COC(C)OC5C(O)C3O)C3COC(=O)C23)OCO4)cc(OC)c1O` (stereo unspecified) + Cc1cccc(N(C)C(=O)C2C(O)CCN2c2nc(C)cc(C(F)(F)F)c2C#N)c1, the IC50 (second compound 0.0316 µM) was 229 nM, the IC50 (second compound 0.1 µM) was 222 nM and the IC50 (second compound 0.316 µM) was 205 nM. For the same compound, the IC50 (second compound 1 µM) was 189 nM, the IC50 (second compound 3.16 µM) was 180 nM and the IC50 (second compound 10 µM) was 137 nM. The viability, T/C [1] was 102%, the viability, T/C [2] was 102% and the viability, T/C (second compound 0.0316 µM, first compound 0.316 µM) was 30.1%. For the same compound, the viability, T/C (second compound 0.0316 µM, first compound 1 µM) was 11.4%, the viability, T/C (second compound 0.0316 µM, first compound 3.16 µM) was 7.61% and the viability, T/C (second compound 0.0316 µM, first compound 10 µM) was 4.64%. It also gave a viability, T/C [3] of 98.4%, a viability, T/C [4] of 98.4% and a viability, T/C (second compound 0.1 µM, first compound 0.316 µM) of 28.7%. For the same compound, the viability, T/C (second compound 0.1 µM, first compound 1 µM) was 12.5%, the viability, T/C (second compound 0.1 µM, first compound 3.16 µM) was 6.62% and the viability, T/C (second compound 0.1 µM, first compound 10 µM) was 4.51%. It also gave a viability, T/C [5] of 111%, a viability, T/C [6] of 89.8% and a viability, T/C (second compound 0.316 µM, first compound 0.316 µM) of 25.9%. For the same compound, the viability, T/C (second compound 0.316 µM, first compound 1 µM) was 11.4%, the viability, T/C (second compound 0.316 µM, first compound 3.16 µM) was 8.46% and the viability, T/C (second compound 0.316 µM, first compound 10 µM) was 4.61%. It also gave a viability, T/C [7] of 113%, a viability, T/C [8] of 80.2% and a viability, T/C (second compound 1 µM, first compound 0.316 µM) of 24.8%. It also gave a viability, T/C (second compound 1 µM, first compound 1 µM) of 11.8%, a viability, T/C (second compound 1 µM, first compound 3.16 µM) of 6.9% and a viability, T/C (second compound 1 µM, first compound 10 µM) of 5.16%. The viability, T/C [9] was 97.7%, the viability, T/C [10] was 77% and the viability, T/C (second compound 3.16 µM, first compound 0.316 µM) was 23.5%. The viability, T/C (second compound 3.16 µM, first compound 1 µM) was 12.4%, the viability, T/C (second compound 3.16 µM, first compound 3.16 µM) was 6.67% and the viability, T/C (second compound 3.16 µM, first compound 10 µM) was 4.34%. The viability, T/C [11] was 97%, the viability, T/C [12] was 60.9% and the viability, T/C (second compound 10 µM, first compound 0.316 µM) was 20.7%. The viability, T/C (second compound 10 µM, first compound 1 µM) was 13.5%, the viability, T/C (second compound 10 µM, first compound 3.16 µM) was 6.34% and the viability, T/C (second compound 10 µM, first compound 10 µM) was 4.46%.
